ChEMBL document CHEMBL5727342, “Imidazo[4,5-C]pyridine and pyrrolo[2,3-C]pyridine derivatives as SSAO inhibitors” (2018)

Target: Voltage-gated inwardly rectifying potassium channel KCNH2 (Homo sapiens, UniProt Q12809)
Test: Electrophysiological recordings were made from a Chinese Hamster Lung cell line stably expressing the full length hERG channel. Single cell ion currents were measured in the perforated patch clamp configuration (100 ug/mL amphoterocin) at room temperature using an IonWorks Quattro instrument. The internal solution contained 140 mM KCl, 1 mM MgCl2, 1 mM EGTA and 20 mM HEPES and was buffered to pH 7.3. […] This sequence was repeated 5 times at a frequency of 0.25 Hz. […] Compounds were incubated for 6-7 min prior to a second measurement of the hERG signal using an identical pulse train.

Sequence of Voltage-gated inwardly rectifying potassium channel KCNH2 (Q12809 whole entry): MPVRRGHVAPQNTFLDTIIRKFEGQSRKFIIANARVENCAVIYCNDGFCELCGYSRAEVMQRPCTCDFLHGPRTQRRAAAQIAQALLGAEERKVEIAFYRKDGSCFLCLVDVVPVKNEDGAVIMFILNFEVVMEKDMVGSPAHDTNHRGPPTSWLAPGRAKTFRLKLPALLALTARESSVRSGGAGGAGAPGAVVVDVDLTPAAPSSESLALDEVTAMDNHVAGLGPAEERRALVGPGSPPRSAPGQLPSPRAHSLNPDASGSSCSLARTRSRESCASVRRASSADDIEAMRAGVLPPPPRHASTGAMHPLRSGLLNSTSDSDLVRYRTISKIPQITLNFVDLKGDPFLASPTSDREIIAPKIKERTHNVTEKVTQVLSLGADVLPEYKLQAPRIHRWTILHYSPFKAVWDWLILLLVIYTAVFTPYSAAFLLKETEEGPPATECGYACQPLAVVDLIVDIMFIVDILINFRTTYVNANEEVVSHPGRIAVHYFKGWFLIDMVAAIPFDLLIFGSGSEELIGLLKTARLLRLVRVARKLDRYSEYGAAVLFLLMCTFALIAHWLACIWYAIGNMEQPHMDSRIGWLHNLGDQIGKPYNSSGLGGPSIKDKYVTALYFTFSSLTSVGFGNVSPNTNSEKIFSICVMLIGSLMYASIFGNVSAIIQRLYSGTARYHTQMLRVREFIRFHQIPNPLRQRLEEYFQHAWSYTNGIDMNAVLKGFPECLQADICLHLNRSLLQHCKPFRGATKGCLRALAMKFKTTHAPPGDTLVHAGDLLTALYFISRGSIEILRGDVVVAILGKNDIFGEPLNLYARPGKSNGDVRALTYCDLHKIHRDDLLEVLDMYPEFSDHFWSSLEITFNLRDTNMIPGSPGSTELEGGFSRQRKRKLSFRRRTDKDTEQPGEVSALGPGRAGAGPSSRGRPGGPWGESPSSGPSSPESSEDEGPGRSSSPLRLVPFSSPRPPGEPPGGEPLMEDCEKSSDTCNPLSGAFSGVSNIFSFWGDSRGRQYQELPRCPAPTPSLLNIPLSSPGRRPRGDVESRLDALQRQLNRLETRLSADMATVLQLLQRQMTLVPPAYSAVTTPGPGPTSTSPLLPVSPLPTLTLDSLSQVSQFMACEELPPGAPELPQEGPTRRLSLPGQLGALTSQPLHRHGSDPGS

In the case of Clc1ccc(-n2c(-c3ccncc3)nc3ccncc32)cc1, the IC50 is reported as “in the range around 5.5 µM”.
